Results published in patent US5130300A, “Method for enhancing growth of mammary parenchyma” (Monsanto Company, priority 1987, dated 1992).

Experiments:
[1] = tested on: Quarter-Udders in Pregnant Beef Cows; assay: Intramammary infusion of hEGF or mEGF, quarter-udder weights and DNA (Examples 1-2); format: in vivo, cross-bred beef cows; conditions: 25 micrograms per infusion, days 1,3,5,7,9, Freund's emulsion
Method: 12 pregnant, non-lactating, cross-bred beef cows within their last 40-80 days of gestation were housed in a free-stall facility, fed a ration of alfalfa hay and pelleted concentrate, and administered 10 ml of an excipient (Freund's Incomplete Adjuvant emulsified with an equal volume of 0.9% sterile saline) into each quarter-udder by intramammary infusion through the streak canal on days 1, 3, 5, 7 and 9 of this study. Infusions were carried out using a 3.2 centimeter long, approximately 12 gauge, blunt-tipped plastic teat infusion cannula obtained from Jorgensen Laboratories, Loveland, Colo. Because front and rear udder halves are not of equal size, treatment vs. control comparisons were made between laterally opposite quarters, i.e., front right vs. front left and rear right vs. rear left. Treatments were randomly assigned to right or left udder-halves, with the contralateral half serving as its control. […] (the other 6 animals).
Prior to treatment, each animal was teatdipped for 3 consecutive days and each teat was pre-cleaned with 70% ethanol in water on the day of treatment. On day 14 the cows were sacrificed and their mammary glands excised. Each udder (milked out if necessary) was skinned, divided along the median suspensory ligament and then into front right, front left, rear right and rear left udder quarters. Each quarter-udder was ground, a representative 200 gm sample was homogenized with 4 times its volume of water, and the total homogenate volume of each was measured.
To determine dry weight of each quarter-udder, three 10 ml aliquots of a 1:5 diluted homogenate were placed in pre-weighed pans, dried overnight at 60° and then dried and weighed to a consistent value.
To determine dry fat-free tissue weight of each quarter-udder, three 5 ml aliquots of the undiluted homogenate were extracted by the method of Anderson, 41 J. Anim. Sci. 118 (1975) except that samples were placed in pre-weighed 25×150 mm glass centrifuge tubes and extracted overnight with 10 ml ethanol:ether (3:1), then centrifuged (5 min at 500 rpm) and the supernatant aspirated; an additional 10 ml aliquot of ethanol:ether was added for a second extraction; and the sample was dried under nitrogen until a consistent value was obtained.
DNA in each quarter-udder was determined by the method of Burton, 12B Methods in Enzymol. 163-66 (1968) using an assay solution of 15% trichloroacetic acid (TCA) in 2N HCl. In these determinations, aliquots of gland homogenate were diluted 1:5 with water and rehomogenized. Using triplicate 0.25 ml or 0.5 ml aliquots of these homogenates, each aliquot was mixed with 2 ml of the assay solution. After 30 min, the samples were centrifuged for 10 min at 3000 rpm and the resulting pellets were washed with 2 ml of a 10% solution of TCA in distilled water. After recentrifugation, the resulting pellets were disrupted in 2 ml of 0.5N perchloric acid and heated for 30 min at 70° to extract DNA. Samples were centrifuged and 1 ml of each resulting supernatant was placed in a 12×75 mm tube. After addition of 2 ml of a solution of 1.5 g diphenylamine and 1.5 ml H2 SO4 in 100 ml glacial acetic acid (and 0.1 ml of 1.6% aqueous acetaldehyde per 20 ml reagent just prior to use), the samples were vortexed and incubated overnight at 27°. Calf thymus DNA was the standard.

[2] = tested on: Quarter-Udders in Pregnant Beef Cows; assay: Intramammary infusion of hEGF, quarter-udder weights and DNA (Examples 3-6); format: in vivo, cross-bred beef cows; conditions: for DNA, % Increase, (A-B)/B / DNA, Mean Increase (A-B) / Dry Fat-Free Weight, % Increase, (A-B)/B / Dry Fat-Free Weight, Mean Increase (A-B) / Dry Weight, % Increase, (A-B)/B / Dry Weight, Mean Increase (A-B) / Wet Weight, % Increase, (A-B)/B / Wet Weight, Mean Increase (A-B): B = excipient only
Excerpt: 24 pregnant, non-lactating, cross-bred beef cows within their last 40-80 days of gestation were randomly divided into 4 treatment groups with 6 animals in each group.

[3] = tested on: Quarter-Udders in Pregnant Beef Cows; assay: Intramammary infusion of hEGF, quarter-udder weights and DNA (Examples 7-8); format: in vivo, cross-bred beef cows
Excerpt: 24 pregnant, non-lactating, cross-bred beef cows within their last 40-80 days of gestation were randomly divided into 3 treatment groups with 8 animals in each group.

[4] = tested on: pregnant Holstein heifers; assay: Intramammary infusion until parturition, milk production in first 105 days of lactation (Example 13); format: in vivo; conditions: one animal, 250 micrograms hEGF every third day only until 15 days before parturition
Method: 48 pregnant Holstein heifers within their last 40 days (approximately) of gestation were housed in a free-stall facility, fed a ration of alfalfa hay and pelleted concentrate, and administered 10 ml of an excipient into each quarter-udder by intramammary infusion through the streak canal every third day until parturition with the exception of one animal which was treated with human EGF as described in this Example only until 15 days before parturition. Infusions were carried out using a 3.2 centimeter long, approximately 12 gauge, blunt-tipped plastic teat infusion cannula obtained from Jorgensen Laboratories, Loveland, Colo. […] In each animal, all 4 quarter-udders received the same treatment. Each udder was sprayed with 70% ethanol and wiped dry prior to treatment and dipped with an iodine solution following treatment. At parturition, 4 animals from each treatment group were sacrificed and their mammary glands were removed for analysis. The other 8 animals from each treatment group were milked normally each a.m. and p.m. for the first 105 days of lactation.

[5] = B = opposite quarter, excipient only
[6] = Group 1: total of 125 micrograms hEGF in Freund's emulsion
[7] = Group 2: total of 125 micrograms hEGF in sesame emulsion
[8] = Group 3: total of 12.5 micrograms hEGF in sesame emulsion
[9] = Group 4: total of 1.25 milligrams hEGF in sesame emulsion
[10] = Group 1: total of 125 micrograms hEGF
[11] = Group 1: total of 125 micrograms hEGF, B = excipient only
[12] = Group 2: total of 1.25 milligrams hEGF
[13] = Group 2: total of 1.25 milligrams hEGF, B = excipient only

hEGF: human EGF from G. D. Searle & Co., prepared by expression of recombinant DNA, purity above 90%
DNA, Mean Increase (A-B) [1, 5]: 84.5 mg
Dry Fat-Free Weight, Mean Increase (A-B) [1, 5]: 4.9 g
Dry Weight, % Increase, (A-B)/B [1, 5]: 7.7%
Wet Weight, Mean Increase (A-B) [1, 5]: 32.6 g
DNA, Treatment Mean ([1]; day 14): 794.5 mg
Dry Fat-Free Weight, Treatment Mean ([1]; day 14): 63.2 g
Dry Weight, Treatment Mean ([1]; day 14): 120.0 g
Wet Weight, Treatment Mean ([1]; day 14): 389.9 g
DNA, Avg % Increase/Animal ([1]; vs excipient-only quarter): 14.8%
Dry Fat-Free Weight, Avg % Increase/Animal ([1]; vs excipient-only quarter): 16.1%
Wet Weight, Avg % Increase/Animal ([1]; vs excipient-only quarter): 12.9%
DNA, Avg % Increase/Animal [2, 6]: 23.0%
DNA, Treatment Mean [2, 6]: 723.0 mg
Dry Fat-Free Weight, Avg % Increase/Animal [2, 6]: 8.3%
Dry Fat-Free Weight, Treatment Mean [2, 6]: 60.3 g
Dry Weight, Treatment Mean [2, 6]: 107.2 g
Wet Weight, Treatment Mean [2, 6]: 364.9 g
DNA, % Increase, (A-B)/B [2, 6]: 14.9%
DNA, Mean Increase (A-B) [2, 6]: 94.0 mg
Dry Fat-Free Weight, % Increase, (A-B)/B [2, 6]: 6.2%
Dry Fat-Free Weight, Mean Increase (A-B) [2, 6]: 3.5 g
Dry Weight, % Increase, (A-B)/B [2, 6]: 6.1%
Dry Weight, Mean Increase (A-B) [2, 6]: 6.2 g
Wet Weight, % Increase, (A-B)/B [2, 6]: 4.4%
Wet Weight, Mean Increase (A-B) [2, 6]: 15.4 g
DNA, Avg % Increase/Animal [2, 7]: 70.0%
DNA, Treatment Mean [2, 7]: 995.0 mg
Dry Fat-Free Weight, Avg % Increase/Animal [2, 7]: 15.9%
Dry Fat-Free Weight, Treatment Mean [2, 7]: 71.0 g
Dry Weight, Avg % Increase/Animal [2, 7]: 20.2%
Wet Weight, Avg % Increase/Animal [2, 7]: 10.4%
Wet Weight, Treatment Mean [2, 7]: 370.2 g
DNA, % Increase, (A-B)/B [2, 7]: 41.5%
DNA, Mean Increase (A-B) [2, 7]: 292.0 mg
Dry Fat-Free Weight, % Increase, (A-B)/B [2, 7]: 3.2%
Dry Fat-Free Weight, Mean Increase (A-B) [2, 7]: 2.2 g
Dry Weight, % Increase, (A-B)/B [2, 7]: 9.9%
Dry Weight, Mean Increase (A-B) [2, 7]: 11.0 g
Wet Weight, % Increase, (A-B)/B [2, 7]: 3.9%
Wet Weight, Mean Increase (A-B) [2, 7]: 14.0 g
DNA, Treatment Mean [2, 8]: 867.6 mg
Dry Fat-Free Weight, Avg % Increase/Animal [2, 8]: 16.3%
Dry Fat-Free Weight, Treatment Mean [2, 8]: 79.4 g
Dry Weight, Avg % Increase/Animal [2, 8]: 7.8%
Dry Weight, Treatment Mean [2, 8]: 132.4 g
Wet Weight, Avg % Increase/Animal [2, 8]: 0.6%
Wet Weight, Treatment Mean [2, 8]: 397.8 g
Dry Fat-Free Weight, Mean Increase (A-B) [2, 8]: 6.7 g
Dry Weight, % Increase, (A-B)/B [2, 8]: 4.2%
Dry Weight, Mean Increase (A-B) [2, 8]: 5.4 g
DNA, Avg % Increase/Animal [2, 9]: 1.6%
DNA, Treatment Mean [2, 9]: 733.2 mg
Dry Fat-Free Weight, Treatment Mean [2, 9]: 81.7 g
Dry Weight, Treatment Mean [2, 9]: 131.5 g
Wet Weight, Avg % Increase/Animal [2, 9]: 9.9%
Wet Weight, Treatment Mean [2, 9]: 391.9 g
DNA, % Increase, (A-B)/B [2, 9]: 0.5%
DNA, Mean Increase (A-B) [2, 9]: 4.0 mg
Dry Fat-Free Weight, Mean Increase (A-B) [2, 9]: 6.6 g
Dry Weight, Mean Increase (A-B) [2, 9]: 13.6 g
Wet Weight, Mean Increase (A-B) [2, 9]: 31.7 g
DNA, Treatment Mean [3, 10]: 396.9 mg
Dry Fat-Free Weight, Treatment Mean [3, 10]: 52.8 g
Dry Weight, Treatment Mean [3, 10]: 113.0 g
Wet Weight, Treatment Mean [3, 10]: 363.0 g
DNA, % Increase, (A-B)/B [3, 11]: 10.6%
DNA, Mean Increase (A-B) [3, 11]: 38.0 mg
Dry Fat-Free Weight, % Increase, (A-B)/B [3, 11]: 4.1%
Dry Fat-Free Weight, Mean Increase (A-B) [3, 11]: 2.1 g
Dry Weight, % Increase, (A-B)/B [3, 11]: 3.0%
Dry Weight, Mean Increase (A-B) [3, 11]: 3.3 g
Wet Weight, % Increase, (A-B)/B [3, 11]: 1.5%
DNA, Treatment Mean [3, 12]: 344.0 mg
Dry Fat-Free Weight, Treatment Mean [3, 12]: 63.8 g
Wet Weight, Treatment Mean [3, 12]: 392.5 g
Dry Fat-Free Weight, % Increase, (A-B)/B [3, 13]: 3.9%
Dry Fat-Free Weight, Mean Increase (A-B) [3, 13]: 2.4 g
Dry Weight, % Increase, (A-B)/B [3, 13]: 5.3%
Dry Weight, Mean Increase (A-B) [3, 13]: 6.3 g
Wet Weight, % Increase, (A-B)/B [3, 13]: 1.1%
Wet Weight, Mean Increase (A-B) [3, 13]: 4.3 g
Average milk production more than average of the 8 control cows [4]: 9.6 kg milk/day
Average milk production more than average of the 8 control cows, percent [4]: 34.8%
